Results as given in patent publication US8946244B2, “2′-fluoro-6′methylene carbocyclic nucleosides and methods of treating viral infections” (University of Georgia Research Foundation, Inc., priority 2009, dated 2015).

Key:
wild-type HBV = assay: intracellular HBV DNA replication assay, wild-type HBV; type: cell-based, Hepatitis B virus
Protocol: (§1) Drug susceptibility assays were performed as previously described. Cytotoxicity assays in PBM, CEM and Vero cells were conducted as previously described. Two compounds were used for testing, the first, an adenine nucleoside analog which contained hydroxyl groups at R^1 and R^1a on the sugar portion of the molecule (compound 15/18) and the second, a prodrug nucleoside based upon compound 15/18 which contained a phosphoamidate group on R^1 (R^1a was H) containing a phenyl group as R^6 and B′ was an amino acid group derived from alanine, where R^8 was methyl and R″ was a methyl group, forming a methyl ester. These compounds were tested in a standard HBV assay in the laboratory of Dr. Brent Korba.

HBV rtL180M = assay: intracellular HBV DNA replication assay, rtL180M mutant; type: cell-based, Hepatitis B virus
Protocol: as §1

HBV = assay: standard HBV assay (laboratory of Dr. Brent Korba); type: cell-based, Hepatitis B virus
Protocol: as §1

[1] = system: HBV double mutant rtL180M/rtM204V; assay: intracellular HBV DNA replication assay, double mutant; type: cell-based; settings: Hepatitis B virus
Protocol: as §1

HBV rtA181T and rtN236T = settings: cited from earlier work
[2] = system: lamivudine-resistant mutants including rtM204V/I±rtL180M; settings: literature ref. 50; cited from earlier work

C=C1[C@@H](n2cnc3c(N)ncnc32)[C@@H](F)[C@H](O)[C@H]1CO (hydrate or solvate) [Compound 15, (+)-(1R,2R,3R,5R)-3-(6-amino-9H-9-purinyl)-2-fluoro-5-(hydroxymethyl)-4-methylenecyclopentan-1-ol]
melting point: 215 to 218 °C (dec.)

C=C1[C@@H](n2cnc3c(N)ncnc32)[C@@H](F)[C@H](O)[C@H]1CO [Compound 15, (+)-(1R,2R,3R,5R)-3-(6-amino-9H-9-purinyl)-2-fluoro-5-(hydroxymethyl)-4-methylenecyclopentan-1-ol]
fold more potent than adefovir (EC90) (wild-type HBV; wild-type HBV, EC90): 1.5 fold
fold increased antiviral activity in the EC90 value versus lamivudine (HBV rtL180M): 4.3 fold

C=C1C(COP(=O)(N[C@@H](C)C(=O)OC)Oc2ccccc2)C(O)C(F)C1n1cnc2c(N)ncnc21 (stereo partly drawn) [Test Number 2, 2′-Deoxy-2′-fluoro-3′-hydroxy-4′-(hydroxymethyl)-5′-methylene-carbocyclic Adenosine (2′-FMCA) Monophosphate prodrug]
times more active than the compound where both R1 and R1a are H (HBV): more than 10 times

Nc1ncnc2c1ncn2CCOCP(=O)(O)O [adefovir]
EC90 (wild-type HBV; Hepatitis B virus, HBV-WT, concentration required to inhibit 90% of HBV DNA, read-out: EC90 against wild-type HBV): 7.1 µM
EC50 ([1]; read-out: EC50 against double mutant rtL180M/rtM204V): 2.2 µM
EC90 ([1]; read-out: EC90 against double mutant rtL180M/rtM204V): 8.5 µM
increase in median effective concentration (HBV rtA181T and rtN236T): two-fold to nine-fold

C=C1[C@H](CO)[C@@H](O)C[C@@H]1n1cnc2c(=O)[nH]c(N)nc21 [entecavir]
fold loss of activity against lamivudine-resistant mutants [2]: 8 fold
